According to patent publication US6472418B1, “Non-peptide NK1 receptors antagonists” (Warner-Lambert Company, priority 1998, dated 2002):

The molecules below were run against T1, Human NK1 Receptor (Homo sapiens, UniProt P25103) (assay: In Vitro Human NK1 Receptor Binding Assay ([125I]Bolton-Hunter substance P displacement, IM9 cells)). Conditions: Human lymphoma IM9 cells, [125I]Bolton-Hunter substance P (0.05-0.1 nM), 50 min at 21° C.; Table 1; read-out: NK1 binding IC50.
T1 construct: endogenous in cells; host or cells: Human lymphoma IM9 cells (whole cells)
Outline: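 Radioligand displacement on whole IM9 human lymphoma cells (2.5×10^6 cells/mL) using [125I]Bolton-Hunter substance P (0.05-0.1 nM), 50 min at 21° C in Tris pH 7.4/MnCl2 buffer with protease inhibitors. Non-specific binding defined by […] [Sar9, Met(O2)11] substance P. Filtration, gamma counting, iterative curve fitting.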

T1 sequence (P25103 whole entry): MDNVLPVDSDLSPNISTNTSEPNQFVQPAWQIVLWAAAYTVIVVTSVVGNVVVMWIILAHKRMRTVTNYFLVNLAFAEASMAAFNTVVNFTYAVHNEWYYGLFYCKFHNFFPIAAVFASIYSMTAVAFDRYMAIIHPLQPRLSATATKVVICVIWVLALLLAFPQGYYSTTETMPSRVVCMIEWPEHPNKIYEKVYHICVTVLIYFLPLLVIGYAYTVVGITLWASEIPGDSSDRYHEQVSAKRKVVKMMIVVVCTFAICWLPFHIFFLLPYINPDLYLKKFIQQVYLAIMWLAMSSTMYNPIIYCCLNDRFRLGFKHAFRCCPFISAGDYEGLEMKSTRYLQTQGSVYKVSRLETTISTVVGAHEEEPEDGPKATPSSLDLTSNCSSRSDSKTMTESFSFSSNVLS

Molecule	IC50
C[C@H](NC(=O)[C@@H](Cc1c[nH]c2ccccc12)NCc1cccc(SC(F)(F)F)c1)c1ccccc1 (relative stereo) [Example 13, 3-(1H-Indol-3-yl)-N-(1-phenyl-ethyl)-2-(3-trifluoromethylsulfanyl-benzylamino)-propionamide, [R-(R*,S*)]]	35 nM

Same assay, conditions: Human lymphoma IM9 cells, [125I]Bolton-Hunter substance P; Table 3, array-synthesis products; read-out: IC50 (nM) hNK1

Molecule	IC50
COc1ccc(CCNC(=O)C(Cc2c[nH]c3ccccc23)NCc2cc3ccccc3o2)cc1 (centres unmarked) [Example 271, 2-[(Benzofuran-2-ylmethyl)-amino]-3-(1H-indol-3-yl)-N-[2-(4-methoxy-phenyl)-ethyl]-propionamide]	196 nM
O=C(NCC1CCNC1)C(Cc1c[nH]c2ccccc12)NCc1cc2ccccc2o1 (centres unmarked) [Example 202, 2-[(Benzofuran-2-ylmethyl)-amino]-3-(1H-indol-3-yl)-N-pyrrolidin-3-ylmethyl-propionamide]	2180 nM
O=C(NCc1ccc2c(c1)OCO2)C(Cc1c[nH]c2ccccc12)NCc1cc2ccccc2o1 (centres unmarked) [Example 267, N-Benzo[1,3]-dioxol-5-ylmethyl-2-[(benzofuran-2-ylmethyl)-amino]-3-(1H-indol-3-yl)-propionamide]	55 nM
O=C(NCc1cc(C(F)(F)F)cc(C(F)(F)F)c1)C(Cc1c[nH]c2ccccc12)NCc1cc2ccccc2o1 (centres unmarked) [Example 218, 2-[(Benzofuran-2-ylmethyl)-amino]-N-(3,5-bis-trifluoromethyl-benzyl)-3-(1H-indol-3-yl)-propionamide]	294 nM
CN(C)c1ccc(CNC(=O)C(Cc2c[nH]c3ccccc23)NCc2cc3ccccc3o2)cc1 (centres unmarked) [Example 214, 2-[(Benzofuran-2-ylmethyl)-amino]-N-(4-dimethylamino-benzyl)-3-(1H-indol-3-yl)-propionamide]	4010 nM
O=C(NCc1ccc([N+](=O)[O-])cc1)C(Cc1c[nH]c2ccccc12)NCc1cc2ccccc2o1 (centres unmarked) [Example 221, 2-[(Benzofuran-2-ylmethyl)-amino]-3-(1H-indol-3-yl)-N-(4-nitro-benzyl)-propionamide]	23 nM
O=C(NC1CC1c1ccccc1)C(Cc1c[nH]c2ccccc12)NCc1cc2ccccc2o1 (centres unmarked) [Example 224, 2-[(Benzofuran-2-ylmethyl)-amino]-3-(1H-indol-3-yl)-N-(2-phenyl-cyclopropyl)-propionamide]	2900 nM
O=C(NC(CO)Cc1ccccc1)C(Cc1c[nH]c2ccccc12)NCc1cc2ccccc2o1 (centres unmarked) [Example 289, 2-[(Benzofuran-2-ylmethyl)-amino]-N-(1-hydroxymethyl-2-phenyl-ethyl)-3-(1H-indol-3-yl)-propionamide]	209 nM
CC(NC(=O)C(Cc1c[nH]c2ccccc12)NCc1cc2ccccc2o1)c1ccc(Cl)s1 (centres unmarked) [Example 243, 2-[(Benzofuran-2-ylmethyl)-amino]-N-[1-(5-chloro-thiophen-2-yl)-ethyl]-3-(1H-indol-3-yl)-propionamide]	15 nM
O=C(NC1CCc2ccccc2C1)C(Cc1c[nH]c2ccccc12)NCc1cc2ccccc2o1 (centres unmarked) [Example 253, 2-[(Benzofuran-2-ylmethyl)-amino]-3-(1H-indol-3-yl)-N-(1,2,3,4-tetrahydro-naphthalen-2-yl)-propionamide]	3330 nM
CC(CCc1ccccc1)NC(=O)C(Cc1c[nH]c2ccccc12)NCc1cc2ccccc2o1 (centres unmarked) [Example 307, 2-[(Benzofuran-2-ylmethyl)-amino]-3-(1H-indol-3-yl)-N-(1-methyl-3-phenyl-propyl)-propionamide]	392 nM
CC(NC(=O)C(Cc1c[nH]c2ccccc12)NCc1cc2ccccc2o1)c1ccc(F)cc1 (centres unmarked) [Example 235, 2-[(Benzofuran-2-ylmethyl)-amino]-N-[1-(4-fluoro-phenyl)-ethyl]-3-(1H-indol-3-yl)-propionamide]	3 nM
O=C(NCc1cc(Cl)sc1Cl)C(Cc1c[nH]c2ccccc12)NCc1cc2ccccc2o1 (centres unmarked) [Example 215, 2-[(Benzofuran-2-ylmethyl)-amino]-N-(2,5-dichloro-thiophen-3-ylmethyl)-3-(1H-indol-3-yl)-propionamide]	70 nM
Cc1ccc(CCNC(=O)C(Cc2c[nH]c3ccccc23)NCc2cc3ccccc3o2)cc1 (centres unmarked) [Example 300, 2-[(Benzofuran-2-ylmethyl)-amino]-3-(1H-indol-3-yl)-N-(2-p-tolyl-ethyl)-propionamide]	256 nM

Same assay, conditions: Table 4; [125I]Bolton-Hunter substance P displacement, human IM9 cells; read-out: IC50 (nM) hNK1

Molecule	IC50
CC(NC(=O)C(C)(Cc1c[nH]c2ccccc12)NCc1ccc(OCCN(C)C)cc1)c1ccccc1 (centres unmarked) [compound 331, 2-[4-(2-Dimethylamino-ethoxy)-benzylamino]-3-(1H-indol-3-yl)-2-methyl-N-(1-phenyl-ethyl)-propionamide]	> 10000 nM
2-[3-(4-Benzyloxy-phenyl)-allylamino]-3-(1H-indol-3-yl)-2-methyl-N-(1-phenyl-ethyl)-propionamide [compound 340]	4910 nM
2-(4-Chloro-3-sulfamoyl-benzylamino)-3-(1H-indol-3-yl)-2-methyl-N-(1-phenyl-ethyl)-propionamide [compound 336]	4230 nM
2-(4-Benzyloxy-benzylamino)-3-(1H-indol-3-yl)-2-methyl-N-(1-phenyl-ethyl)-propionamide [compound 341]	> 10000 nM

Same assay, conditions: Table 5; [125I]Bolton-Hunter substance P displacement, human IM9 cells; read-out: IC50 (nM) hNK1

Molecule	IC50
CC(NC(=O)C(Cc1c[nH]c2ccccc12)NCc1cccnc1)c1ccccc1 (centres unmarked) [compound 393]	802 nM
Cc1c(-c2ccccc2)occ(CNC(Cc2c[nH]c3ccccc23)C(=O)NC(C)c2ccccc2)c1=O (centres unmarked) [compound 373]	507 nM

Same assay, conditions: human NK1 receptor, IM9 cells, [125I]Bolton-Hunter substance P; read-out: IC50 (nM) hNK1

Molecule	IC50
CCC(NC(=O)C(C)(Cc1c[nH]c2ccccc12)NCc1cc2ccccc2o1)c1ccccc1 (centres unmarked) [compound 162, 2-[(Benzofuran-2-ylmethyl)-amino]-3-(1H-indol-3-yl)-2-methyl-N-(1-phenyl-propyl)-propionamide]	42 nM
CC(NC(=O)C(C)(Cc1c[nH]c2ccccc12)NCc1cc2ccccc2o1)c1ccc([N+](=O)[O-])cc1 (centres unmarked) [compound 34, 2-[(Benzofuran-2-ylmethyl)-amino]-3-(1H-indol-3-yl)-2-methyl-N-[1-(4-nitro-phenyl)-ethyl]-propionamide]	14 nM
2-[(Benzofuran-2-ylmethyl)-amino]-N-(5-hydroxy-4-oxo-4H-pyran-2-ylmethyl)-3-(1H-indol-3-yl)-2-methyl-propionamide [compound 164]	> 10000 nM
CC(Cc1c[nH]c2ccccc12)(NCc1cc2ccccc2o1)C(=O)NCc1cc(Cl)sc1Cl (centres unmarked) [compound 109, 2-[(Benzofuran-2-ylmethyl)-amino]-N-(2,5-dichloro-thiophen-3-ymethyl)-3-(1H-indol-3-yl)-2-methyl-propionamide]	279 nM
CC1(CNC(=O)C(C)(Cc2c[nH]c3ccccc23)NCc2cc3ccccc3o2)OCCO1 (centres unmarked) [compound 126, 2-[(Benzofuran-2-ylmethyl)-amino]-3-(1H-indol-3-yl)-2-methyl-N-(2-methyl-[1,3]dioxolan-2-ylmethyl)-propionamide]	6790 nM
Cc1ccccc1CNC(=O)C(C)(Cc1c[nH]c2ccccc12)NCc1cc2ccccc2o1 (centres unmarked) [compound 157, 2-[(Benzofuran-2-ylmethyl)-amino]-3-(1H-indol-3-yl)-2-methyl-N-(2-methyl-benzyl)-propionamide]	455 nM
CC(NC(=O)C(C)(Cc1c[nH]c2ccccc12)NCc1cc2ccccc2o1)C1=CCCO1 (centres unmarked) [compound 146, 2-[(Benzofuran-2-ylmethyl)-amino]-N-[1-(4,5-dihydro-furan-2-yl)-ethyl]-3-(1H-indol-3-yl)-2-methyl-propionamide]	3590 nM
CC(Cc1c[nH]c2ccccc12)(NCc1cc2ccccc2o1)C(=O)NCCc1cccs1 (centres unmarked) [compound 172, 2-[(Benzofuran-2-ylmethyl)-amino]-3-(1H-indol-3-yl)-2-methyl-N-(2-thiophen-2-yl-ethyl)-propionamide]	153 nM
COC1C=CC(CNC(=O)C(C)(Cc2c[nH]c3ccccc23)NCc2cc3ccccc3o2)(OC)O1 (centres unmarked) [compound 149, 2-[(Benzofuran-2-ylmethyl)-amino]-N-(2,5-dimethoxy-2,5-dihydro-furan-2-ylmethyl)-3-(1H-indol-3-yl)-2-methyl-propionamide]	> 10000 nM
CC(CN1CCCC1=O)NC(=O)C(C)(Cc1c[nH]c2ccccc12)NCc1cc2ccccc2o1 (centres unmarked) [compound 93, 2-[(Benzofuran-2-ylmethyl)-amino]-3-(1H-indol-3-yl)-2-methyl-N-[1-methyl-2-(2-oxo-pyrrolidin-1-yl)-ethyl]-propionamide]	> 10000 nM
CC(Cc1c[nH]c2ccccc12)(NCc1cc2ccccc2o1)C(=O)NCC(C)(C)N1CCCCC1 (centres unmarked) [compound 131, 2-[(Benzofuran-2-ylmethyl)-amino]-3-(1H-indol-3-yl)-2-methyl-N-(2-methyl-2-piperidin-1-yl-propyl)-propionamide]	> 10000 nM
CC(Cc1c[nH]c2ccccc12)(NCc1cc2ccccc2o1)C(=O)NCC1(c2cccnc2)CCC1 (centres unmarked) [compound 159, 2-[(Benzofuran-2-ylmethyl)-amino]-3-(1H-indol-3-yl)-2-methyl-N-(1-pyridin-3-yl-cyclobutylmethyl)-propionamide]	3760 nM
CC(Cc1c[nH]c2ccccc12)(NCc1cc2ccccc2o1)C(=O)NCC1CCCCC1O (centres unmarked) [compound 184, 2-[(Benzofuran-2-ylmethyl)-amino]-N-(2-hydroxy-cyclohexylmethyl)-3-(1H-indol-3-yl)-2-methyl-propionamide]	> 10000 nM
CC(Cc1c[nH]c2ccccc12)(NCc1cc2ccccc2o1)C(=O)NC12CN3CN(CN(C3)C1)C2 (centres unmarked) [compound 78, 2-[(Benzofuran-2-ylmethyl)-amino]-3-(1H-indol-3-yl)-2-methyl-N-(1,3,5-triaza-tricyclo[3.3.1.1>3,7]-dec-7-yl)-propionamide]	> 10000 nM
